Data published in the supplement of paper PMC10331698.
± gives the standard deviation of the averaged measurements.

Tests used:
Assay in all cases: level (log10 ratio to DMSO vehicle control); higher = higher biomarker level / cell amount than vehicle control
Settings in all cases: in DMSO
[1] = compound: C=C(C)C(=O)OCCC(F)(F)C(F)(F)C(F)(F)C(F)(F)C(F)(C(F)(F)F)C(F)(F)F [(Perfluoro-5-methylhexyl)ethyl 2-methylprop-2-enoate]
Description: (§1)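 BioMAP Diversity Plus panel of 12 human primary cell co-culture systems (3C, 4H, LPS, SAg, BT, BF4T, BE3C, CASM3C, HDF3CGF, KF3CT, MyoF, Mphg). Compounds were added 1 h before stimulation and left for 24 h (MyoF 48 h; BT 72 h for soluble read-outs or 6 d for IgG). Biomarkers were read by ELISA, cytotoxicity by SRB, PBMC viability and proliferation by Alamar Blue. Each well value was divided by the mean of 8 DMSO control wells on the same plate and log10 transformed; duplicate blinded samples were tested at 4 concentrations.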

[2] = compound: COC(=O)CCC(F)(F)C(F)(F)C(F)(F)C(F)(F)F [Methyl 2H,2H,3H,3H-perfluoroheptanoate]
Description: as §1

[3] = compound: FC(F)(F)C(F)(F)C(F)(F)C(F)(F)C(F)(F)CCI [1-Iodo-1H,1H,2H,2H-perfluoroheptane]
Description: as §1

[4] = compound: NC(=O)C(F)(F)C(F)(F)C(F)(F)F [Heptafluorobutyramide]
Description: as §1

[5] = compound: O=C(O)C(F)(F)C(F)(F)C(F)(F)C(F)(F)F [Perfluoropentanoic acid]
Description: as §1

[6] = compound: O=C(O)C(F)(F)C(F)(F)C(F)(F)OC(F)(C(F)(F)F)C(F)(F)F [Perfluoro-4-isopropoxybutanoic acid]
Description: as §1

[7] = compound: O=S(=O)(O)C(F)(F)C(F)(F)C(F)(F)C(F)(F)C(F)(F)C(F)(F)F [Perfluorohexanesulfonic acid]
Description: as §1

Test System	level (log10) ([1]; 6700 nM)	level (log10) ([1]; 20000 nM)	level (log10) ([2]; 6700 nM)	level (log10) ([2]; 20000 nM)	level (log10) ([2]; 60000 nM)	level (log10) ([3]; 6700 nM)	level (log10) ([3]; 20000 nM)	level (log10) ([3]; 60000 nM)	level (log10) ([4]; 6700 nM)	level (log10) ([4]; 20000 nM)	level (log10) ([4]; 60000 nM)	level (log10) ([5]; 6700 nM)	level (log10) ([5]; 20000 nM)	level (log10) ([5]; 60000 nM)	level (log10) ([6]; 6700 nM)	level (log10) ([6]; 20000 nM)	level (log10) ([6]; 60000 nM)	level (log10) ([7]; 6700 nM)	level (log10) ([7]; 20000 nM)	level (log10) ([7]; 60000 nM)
HDF3CGF:CXCL11/I-TAC	-0.013 ± 0.0014	-0.0155 ± 0.013	-0.002 ± 0.013	0.0215 ± 0.0021	-0.0055 ± 0.011	-0.0155 ± 0.00071	-0.027 ± 0.0042	-0.143 ± 0.042	0.0015 ± 0.00071	-0.0015 ± 0.0092	-0.0305 ± 0.015	-0.0085 ± 0.012	-0.0065 ± 0.015	0.005 ± 0.054	0.002 ± 0.021	0.008 ± 0.0042	-0.0025 ± 0.00071	0.01	-0.004 ± 0.0099	-0.004 ± 0.021
MyoF:Collagen III	-0.0135 ± 0.052	-0.0455 ± 0.04	-0.0085 ± 0.0092	-0.007 ± 0.0014	-0.015 ± 0.0057	0.0085 ± 0.029	0.0185 ± 0.0092	0.041 ± 0.013	-0.0025 ± 0.0092	0.0025 ± 0.011	-0.004 ± 0.02	-0.001 ± 0.0028	0.0055 ± 0.0021	-0.001 ± 0.0085	-0.0095 ± 0.011	-0.001 ± 0.0014	0.0025 ± 0.021	0.0035 ± 0.005	-0.013 ± 0.0028	-0.0125 ± 0.033
MyoF:CD106/VCAM-1	0.0095 ± 0.0092	-0.013 ± 0.0028	-0.003 ± 0.0014	0.0105 ± 0.021	0.018 ± 0.011	0.001 ± 0.0042	-0.026 ± 0.0028	-0.0205 ± 0.0064	-0.0165 ± 0.0064	-0.017 ± 0.028	-0.0145 ± 0.018	0.0025 ± 0.005	0.001	-0.001 ± 0.0057	-0.023 ± 0.017	0.0095 ± 0.0035	-0.001	0.005 ± 0.018	0.003 ± 0.0042	-0.0145 ± 0.023
3C:CD106/VCAM-1	-0.032 ± 0.0099	-0.012 ± 0.0085	-0.0175 ± 0.028	-0.0125 ± 0.013	0.0065 ± 0.005	-0.01 ± 0.0028	-0.02 ± 0.0042	-0.0205 ± 0.022	-0.0085 ± 0.0021	-0.01 ± 0.014	-0.025	0.002 ± 0.023	-0.0055 ± 0.021	0.0235 ± 0.015	0.0135 ± 0.00071	0.006 ± 0.011	0.015 ± 0.02	-0.0085 ± 0.026	-0.029 ± 0.0042	-0.014 ± 0.025
BE3C:MMP-1	0.026 ± 0.0042	0.014 ± 0.0057	0.0035 ± 0.052	0.004 ± 0.045	0.03 ± 0.1	0.004 ± 0.023	0.074 ± 0.03	0.162 ± 0.0078	0.007 ± 0.0057	0.0045 ± 0.018	0.0195 ± 0.073	-0.015 ± 0.03	-0.0175 ± 0.029	0.027 ± 0.047	-0.002 ± 0.017	0.004 ± 0.025	0.0605 ± 0.054	0.0075 ± 0.00071	0.0375 ± 0.018	0.227 ± 0.042
HDF3CGF:PAI-I	-0.037 ± 0.0028	-0.0385 ± 0.019	0.0005 ± 0.0035	-0.0055 ± 0.0092	0.002 ± 0.021	0.078 ± 0.02	0.0135 ± 0.0078	0.0355 ± 0.096	-0.0105 ± 0.018	-0.0275 ± 0.028	-0.0125 ± 0.03	-0.0055 ± 0.026	-0.015 ± 0.013	0.007 ± 0.0014	-0.001 ± 0.033	-0.0115 ± 0.025	-0.0165 ± 0.013	-0.0185 ± 0.019	-0.0145 ± 0.023	-0.004 ± 0.0057
CASM3C:CD142/Tissue Factor	-0.037 ± 0.024	-0.0265 ± 0.056	-0.021 ± 0.027	0.001 ± 0.013	0.015 ± 0.017	0.001 ± 0.0085	-0.0065 ± 0.005	-0.0295 ± 0.028	0.007 ± 0.034	-0.0105 ± 0.05	-0.031 ± 0.041	-0.002 ± 0.0071	-0.013 ± 0.024	-0.0225 ± 0.056	-0.018 ± 0.033	-0.011 ± 0.0042	0.0205 ± 0.025	0.0145 ± 0.047	-0.0005 ± 0.023	0.005 ± 0.0014
3C:CD62E/E-Selectin	-0.0095 ± 0.018	-0.0175 ± 0.0021	-0.037 ± 0.0071	-0.012 ± 0.013	0.0005 ± 0.022	-0.005 ± 0.0071	0.004 ± 0.011	0.008 ± 0.018	-0.0085 ± 0.03	-0.017 ± 0.038	-0.0385 ± 0.0064	-0.0085 ± 0.0035	0.0005 ± 0.0064	0.0175 ± 0.026	-0.007 ± 0.023	-0.015 ± 0.03	0.023 ± 0.0099	-0.0075 ± 0.011	0.012 ± 0.0042	0.0685 ± 0.018
CASM3C:HLA-DR	-0.0175 ± 0.019	-0.01 ± 0.0085	-0.0185 ± 0.005	-0.014 ± 0.018	-0.011 ± 0.028	-0.006 ± 0.0099	-0.0055 ± 0.0064	-0.009 ± 0.021	0.003 ± 0.024	-0.0025 ± 0.0021	-0.012 ± 0.038	-0.019 ± 0.014	-0.022 ± 0.023	0.003 ± 0.054	-0.0205 ± 0.029	-0.0315 ± 0.023	-0.013 ± 0.04	0.0105 ± 0.015	-0.001 ± 0.013	-0.008 ± 0.028
CASM3C:LDLR	-0.032 ± 0.03	0.018 ± 0.025	0.016 ± 0.0099	0.0095 ± 0.005	0.033 ± 0.028	0.0005 ± 0.011	0.009	0.013 ± 0.016	-0.017 ± 0.0014	-0.0145 ± 0.0064	0.024 ± 0.047	-0.0085 ± 0.0064	-0.0045 ± 0.0078	-0.0095 ± 0.025	0.012 ± 0.0014	0.017 ± 0.011	0 ± 0.0014	-0.014 ± 0.0042	-0.0055 ± 0.0035	0.0155 ± 0.039
KF3CT:CXCL8/IL-8	-0.013 ± 0.037	0.006 ± 0.03	-0.0125 ± 0.019	-0.007 ± 0.013	0.0175 ± 0.044	0.007 ± 0.035	0.028 ± 0.02	0.06 ± 0.011	0.003	0.002 ± 0.0085	0.0095 ± 0.012	-0.0025 ± 0.019	-0.0035 ± 0.005	0.016 ± 0.0071	0.0175 ± 0.018	0.0335 ± 0.005	0.043 ± 0.071	0.015 ± 0.02	0.03 ± 0.0057	0.038 ± 0.0057
KF3CT:SRB	-0.006 ± 0.0014	0.003 ± 0.016	-0.018 ± 0.016	-0.0055 ± 0.005	0 ± 0.018	0.002 ± 0.0071	-0.0045 ± 0.00071	-0.0065 ± 0.0078	-0.0055 ± 0.0035	0.0025 ± 0.0078	-0.001 ± 0.011	-0.007 ± 0.0071	-0.004 ± 0.0014	0.0055 ± 0.011	-0.009 ± 0.0071	-0.013 ± 0.0028	-0.007 ± 0.0071	-0.0015 ± 0.0021	-0.0095 ± 0.005	0.0005 ± 0.023
